Data reported in patent publication US7060844B2, “(3Z)-3-(2,3-dihydro-1H-inden-1-ylidene)-1,3-dihydro-2H-indol-2-ones as kinase inhibitors” (Allergan, Inc., priority 2002, dated 2006).

What was measured:
[1] = test system: VEGF induced increases in intracellular calcium levels in HUVEC (human umbilical vein endothelial cells); assay: VEGF Stimulated Ca++ Signal in Vitro (FLIPR, cell based assay); details: for IC50: VEGF stimulation 5 ng/mL, 30 min pre-incubation, 0.01 to 10.0 uM
Method: VEGF Stimulated Ca^++ Signal in Vitro
Automated FLIPR (Fluorometric Imaging Plate Reader) technology was used to screen for inhibitors of VEGF induced increases in intracellular calcium levels in fluorescent dye loaded endothelial cells. HUVEC (human umbilical vein endothelial cells) (Clonetics) were seeded in 96-well fibronectin coated black-walled plates overnight @ 37° C./5% CO2. Cells were loaded with calcium indicator Fluo-4 for 45 minutes at 37° C. Cells were washed 4 times (Original Cell Wash, Labsystems) to remove extracellular dye. For screening, cells were pre-incubated with test agents for 30 minutes at a single concentration (10 uM) or at concentrations ranging from 0.01 to 10.0 uM, followed by VEGF stimulation (5 ng/mL). Changes in fluorescence at 516 nm were measured simultaneously in all 96 wells using a cooled CCD camera. Data were generated by determining max-min fluorescence levels for unstimulated, stimulated, and drug treated samples. IC50 values for test compounds were calculated from % inhibition of VEGF stimulated responses in the absence of inhibitor.

[2] = biological target: T1, cytoplasmic domain of the human VEGF receptor (VEGFR-2) (Homo sapiens, UniProt P35968); assay: KDR kinase assay (ELISA, poly-Glu-Tyr substrate, with BSA); assay type: biochemical; details: His-VEGFR-2, 3.6 μM ATP, plates incubated with 1% BSA
T1 construct: The cytoplasmic domain of the human VEGF receptor (VEGFR-2) was expressed; His (Histidine tag); made in house; host or cells: insect cells (engineered baculovirus)
Method: The cytoplasmic domain of the human VEGF receptor (VEGFR-2) was expressed as a Histidine-tagged fusion protein following infection of insect cells using an engineered baculovirus. His-VEGFR-2 was purified to homogeneity, as determined by SDS-PAGE, using nickel resin chromatography. Kinase assays were performed in 96 well microtiter plates that were coated overnight with 30 μg of poly-Glu-Tyr (4:1) in 10 mM Phosphate Buffered Saline (PBS), pH 7.2–7.4. The plates were incubated with 1% BSA and then washed four times with PBS prior to starting the reaction. Reactions were carried out in 120 μL reaction volumes containing 3.6 μM ATP in kinase buffer (50 mM Hepes pH 7.4, 20 mM MgCl2, 0.1 mM MnCl2 and 0.2 mM Na3VO4). Test compounds were reconstituted in 100% DMSO and added to the reaction to give a final DMSO concentration of 5%. Reactions were initiated by the addition 0.5 ng of purified protein. Following a ten minute incubation at 25° C., the reactions were washed four times with PBS containing 0.05% Tween-20. 100 μl of a monoclonal anti-phosphotyrosine antibody-peroxidase conjugate was diluted 1:10000 in PBS-Tween-20 and added to the wells for 30 minutes. Following four washes with PBS-Tween-20, 100 μl of 0-Phenylenediamine Dihydrochloride in Phosphate-citrate buffer, containing urea hydrogen peroxide, was added to the wells for 7 minutes as a colorimetric substrate for the peroxidase. The reaction was terminated by the addition of 100 μl of 2.5N H2SO4 to each well and read using a microplate ELISA reader set at 492 nm. IC50 values for compound inhibition were calculated directly from graphs of optical density (arbitrary units) versus compound concentration following subtraction of blank values.

[3] = Homo sapiens, single concentration 10 uM, VEGF 5 ng/mL

T1 sequence (P35968 786-1356 limits assumed): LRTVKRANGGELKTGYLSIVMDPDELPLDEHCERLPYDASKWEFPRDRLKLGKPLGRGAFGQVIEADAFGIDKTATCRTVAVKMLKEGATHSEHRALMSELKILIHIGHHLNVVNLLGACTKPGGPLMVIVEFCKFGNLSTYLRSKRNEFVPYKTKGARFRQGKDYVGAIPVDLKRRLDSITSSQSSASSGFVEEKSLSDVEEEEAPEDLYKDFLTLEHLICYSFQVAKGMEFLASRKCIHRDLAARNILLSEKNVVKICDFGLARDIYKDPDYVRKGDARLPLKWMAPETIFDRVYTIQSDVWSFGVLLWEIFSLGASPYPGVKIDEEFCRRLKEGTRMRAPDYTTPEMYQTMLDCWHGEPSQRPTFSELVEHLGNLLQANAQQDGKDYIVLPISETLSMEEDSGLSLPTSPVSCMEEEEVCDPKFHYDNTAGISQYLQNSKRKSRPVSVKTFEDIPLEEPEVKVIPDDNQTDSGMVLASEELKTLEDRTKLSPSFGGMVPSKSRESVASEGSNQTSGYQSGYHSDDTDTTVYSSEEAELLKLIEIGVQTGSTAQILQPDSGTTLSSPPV

Compound	IC50 [2]	IC50 ([1]; Homo sapiens)	inhibition at 10 µM [1, 3]	IC50 [1]	VEGF (% inhibition @ 10 uM) (Cell based assay, Ca++) ([1]; single concentration 10 uM, VEGF 5 ng/mL)
[3-(2-Oxo-1,2-dihydro-indol-3-ylidene)-1,3-dihydro-isobenzofuran-5-yl]-acetamide [Example 6]	1.11 µM	–	–	1.23 µM	97%
O=C1Nc2ccc(F)cc2C1=C1OCc2ccccc21 [Example 4, 5-Fluoro-3-(3H-isobenzofuran-1-ylidene)-1,3-dihydro-indol-2-one]	0.073 µM	0.055 µM	99%	–	–
Nc1ccc2c(c1)C(=C1C(=O)Nc3ccccc31)OC2 [Example 5, 3-(6-Amino-3H-isobenzofuran-1-ylidene)-1,3-dihydro-indol-2-one]	0.13 µM	0.04 µM	98%	–	–
O=C(CCCCl)Nc1ccc2c(c1)C(=C1C(=O)Nc3ccccc31)OC2 [Example 9, 4-Chloro-N-[3-(2-oxo-1,2-dihydro-indol-3-ylidene)-1,3-dihydro-isobenzofuran-5-yl]-butyramide]	3.25 µM	–	35%	–	–
Nc1ccc(CO)c(C(=O)Nc2ccc3c(c2)C(=C2C(=O)Nc4ccccc42)OC3)c1 [Example 13, 5-Amino-2-hydroxymethyl-N-[3-(2-oxo-1,2-dihydro-indol-3-ylidene)-1,3-dihydro-isobenzofuran-5-yl]-benzamide]	1.34 µM	2.1 µM	99%	–	–
O=C1Nc2ccccc2C1=C1OCc2ccc(NC(=O)C3CC3)cc21 [Example 8, Cyclopropanecarboxylic acid [3-(2-oxo-1,2-dihydro-indol-3-ylidene)-1,3-dihydro-isobenzofuran-5-yl]-amide]	0.85 µM	–	48%	–	–
COc1ccc(CC(=O)Nc2ccc3c(c2)C(=C2C(=O)Nc4ccccc42)OC3)cc1 [Example 10, 2-(4-Methoxy-phenyl)-N-[3-(2-oxo-1,2-dihydro-indol-3-ylidene)-1,3-dihydro-isobenzofuran-5-yl]-acetamide]	8.02 µM	–	50%	–	–
Cc1cccc2c1C(=C1OCc3ccccc31)C(=O)N2 [Example 3, 3-(3H-Isobenzofuran-1-ylidene)-4-methyl-1,3-dihydro-indol-2-one]	–	0.685 µM	95%	–	–
CCNc1ccc2c(c1)C(=C1C(=O)Nc3ccccc31)OC2 [Example 11, 3-(6-Ethylamino-3H-isobenzofuran-1-ylidene)-1,3-dihydro-indol-2-one]	0.66 µM	0.78 µM	99%	–	–
O=C1Nc2ccccc2C1=C1OCc2ccccc21 [Example 1, 3-(3H-isobenzofuran-1-ylidene)-1,3-dihydro-indol-2-one]	–	0.11 µM	99%	–	–
CCCC(=O)Nc1ccc2c(c1)C(=C1C(=O)Nc3ccccc31)OC2 [Example 7, N-[3-(2-Oxo-1,2-dihydro-indol-3-ylidene)-1,3-dihydro-isobenzofuran-5-yl]-butyramide]	9.78 µM	–	5%	–	–
Nc1ccc2c(c1)COC2=C1C(=O)Nc2ccccc21 [Example 12, 3-(5-Amino-3H-isobenzofuran-1-ylidene)-1,3-dihydro-indol-2-one]	0.065 µM	0.04 µM	98%	–	–
O=C1Nc2ccc(Cl)cc2C1=C1OCc2ccccc21 [Example 2, 5-Chloro-3-(3H-isobenzofuran-1-ylidene)-1,3-dihydro-indol-2-one]	–	0.05 µM	98%	–	–

Second part, led by results:

IC50 [2]	Compound	IC50 ([1]; Homo sapiens)	inhibition at 10 µM [1, 3]	IC50 [1]	VEGF (% inhibition @ 10 uM) (Cell based assay, Ca++) ([1]; single concentration 10 uM, VEGF 5 ng/mL)
0.043 µM	CN(C)c1ccc2c(c1)COC2=C1C(=O)Nc2ccccc21 [Example 23, 3-(5-Dimethylamino-3H-isobenzofuran-1-ylidene)-1,3-dihydro-indol-2-one]	0.096 µM	96%	–	–
0.061 µM	CNc1ccc2c(c1)COC2=C1C(=O)Nc2ccccc21 [Example 24, 3-(5-Methylamino-3H-isobenzofuran-1-ylidene)-1,3-dihydro-indol-2-one]	0.073 µM	98%	–	–
0.037 µM	CCNc1ccc2c(c1)COC2=C1C(=O)Nc2ccccc21 [Example 15, 3-(5-Ethylamino-3H-isobenzofuran-1-ylidene)-1,3-dihydro-indol-2-one]	0.051 µM	95%	–	–
0.063 µM	CC(=O)Nc1ccc2c(c1)COC2=C1C(=O)Nc2ccccc21 [Example 18, N-[1-(2-Oxo-1,2-dihydro-indol-3-ylidene)-1,3-dihydro-isobenzofuran-5-yl]-acetamide]	0.04 µM	97%	–	–
0.64 µM	O=C1Nc2ccccc2C1=C1OCc2ccc(NCCCO)cc21 [Example 14, 3-[6-(3-Hydroxy-propylamino)-3H-isobenzofuran-1-ylidene]-1,3-dihydro-indol-2-one]	0.85 µM	100%	–	–
0.015 µM	Nc1ccc2c(c1)C(=C1C(=O)Nc3ccc(Cl)cc31)OC2 [Example 16, 3-(6-Amino-3H-isobenzofuran-1-ylidene)-5-chloro-1,3-dihydro-indol-2-one]	0.06 µM	99%	–	–
1.69 µM	CN(C)c1ccc2c(c1)C(=C1C(=O)Nc3ccccc31)OC2 [Example 21, 3-(6-Dimethylamino-3H-isobenzofuran-1-ylidene)-1,3-dihydro-indol-2-one]	1.31 µM	94%	–	–
0.066 µM	CC(=O)Nc1ccc2c(c1)COC2=C1C(=O)Nc2ccc(Cl)cc21 [Example 19, N-[1-(5-Chloro-2-oxo-1,2-dihydro-indol-3-ylidene)-1,3-dihydro-isobenzofuran-5-yl]-acetamide]	0.05 µM	99%	–	–
0.139 µM	Nc1ccc2c(c1)CO/C2=C1/C(=O)Nc2ccc(Cl)cc21 [Example 17, 3-(5-Amino-3H-isobenzofuran-1-ylidene)-5-chloro-1,3-dihydro-indol-2-one]	0.055 µM	98%	–	–
0.39 µM	CC(=O)Nc1ccc2c(c1)C(=C1C(=O)Nc3ccc(Cl)cc31)OC2 [Example 20, N-[3-(5-Chloro-2-oxo-1,2-dihydro-indol-3-ylidene)-1,3-dihydro-isobenzofuran-5-yl]-acetamide]	0.097 µM	99%	–	–
0.17 µM	CNc1ccc2c(c1)C(=C1C(=O)Nc3ccccc31)OC2 [Example 22, 3-(6-Methylamino-3H-isobenzofuran-1-ylidene)-1,3-dihydro-indol-2-one]	0.29 µM	96%	–	–
